Reference: US5486597A, “Tetrapeptide derivatives and analogues” (James Black Foundation Limited, priority 1990, dated 1996)
Non-standard residues stand in square brackets, D forms with d. Residues, ends and D or L forms follow the SMILES beside them. *: point of attachment. 1Nal = N[C@@H](Cc1cccc2ccccc12)C(=O)O; 2Nal = N[C@@H](Cc1ccc2ccccc2c1)C(=O)O; d1Nal = N[C@H](Cc1cccc2ccccc12)C(=O)O; d2Nal = N[C@H](Cc1ccc2ccccc2c1)C(=O)O; Fmoc = O=C(OCC1c2ccccc2-c2ccccc21)*; Phe(ol) = N[C@H](CO)Cc1ccccc1; Boc = CC(C)(C)OC(=O)*; For = O=C*

How the values were obtained:
Assay type in all cases: cell-based
gastrin receptor [1] = molecular target: T1, gastrin receptor (Cavia porcellus, UniProt H0VZC5); experiment: guinea-pig fundus assay for gastrin activity (stomach muscle strips); settings: 10^-8 M devazepide present, 60 minute equilibration, agonist e.g. pentagastrin, standard errors less than 5%
T1 construct: Strips of muscle (approximately 2.5 cm by 1 cm) are removed from the proximal area of the stomach; from tissue; host or cells: guinea-pig proximal stomach (fundus) muscle strips
T1 sequence (H0VZC5 1-426): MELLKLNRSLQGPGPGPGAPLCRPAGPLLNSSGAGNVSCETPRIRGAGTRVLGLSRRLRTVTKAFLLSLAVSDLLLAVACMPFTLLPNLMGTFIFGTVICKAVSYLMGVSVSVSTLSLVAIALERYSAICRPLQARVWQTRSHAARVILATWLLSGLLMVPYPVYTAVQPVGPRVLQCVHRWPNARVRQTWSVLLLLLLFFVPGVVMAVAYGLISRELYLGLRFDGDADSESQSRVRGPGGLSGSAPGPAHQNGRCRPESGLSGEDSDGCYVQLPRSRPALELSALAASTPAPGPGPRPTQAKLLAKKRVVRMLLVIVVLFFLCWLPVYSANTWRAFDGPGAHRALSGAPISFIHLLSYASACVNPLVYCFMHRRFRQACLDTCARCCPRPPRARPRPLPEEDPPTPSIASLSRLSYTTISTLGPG
Description: The compounds were assayed for gastrin activity using the mouse stomach assay as described by Black, J. W. and Shankley, N. P., Br. J. Pharmacol., 86, 571-579, (1985), and also in the guinea-pig fundus assay, as follows:
The stomach is removed from a male Dunkin-Hartley guinea-pig (250-500 g), and Krebs solution is injected through a hypodermic needle under the top stomach muscle layer. The composition (mM) of the Krebs solution is as follows: Na^+ 143, K^+ 5.9, Ca^2+ 2.5, Mg^2+ 1.2, Cl^- 128, H2 PO4^- 2.2, HCO3^- 24.9, SO4^2- 1.2, dextrose 10. Strips of muscle (approximately 2.5 cm by 1 cm) are removed from the proximal area of the stomach (one from each side) and tied with cotton thread to isotonic transducers under an initial loading tension of 0.35 g.
The preparation is immersed in 20 mls of Krebs solution containing 10^-8 M devazepide (25 μl 2×10^-3 M devazepide/100% DMF solution in 5 dm^3 Krebs) and gassed with 95% O2 /5% CO2. The function of the devazepide is to block possible effects at CCK receptors present in the tissue.
The preparation is washed twice over a 60 minute period then 10 mM KCl is added. At 90 minutes, test compounds (ie. potential antagonists) are added and a further 60 minute equilibration period allowed. After this time, cumulative agonist (e.g. pentagastrin) dose-response curves are constructed.

[2] = molecular target: T2, cholecystokinin receptors (Cavia porcellus, UniProt Q63931); experiment: CCK-antagonist activity in isolated guinea-pig gall-bladder strip preparations; settings: guinea-pig gall-bladder strips; CCK-8 as agonist; test compound incubated for 60 minutes; standard errors less than 5%
T2 construct: Isolated, strip preparations were prepared from gall-bladders removed from male Dunkin-Hartley guinea-pigs; from tissue; host or cells: guinea-pig gall-bladder strips
T2 sequence (Q63931 1-430): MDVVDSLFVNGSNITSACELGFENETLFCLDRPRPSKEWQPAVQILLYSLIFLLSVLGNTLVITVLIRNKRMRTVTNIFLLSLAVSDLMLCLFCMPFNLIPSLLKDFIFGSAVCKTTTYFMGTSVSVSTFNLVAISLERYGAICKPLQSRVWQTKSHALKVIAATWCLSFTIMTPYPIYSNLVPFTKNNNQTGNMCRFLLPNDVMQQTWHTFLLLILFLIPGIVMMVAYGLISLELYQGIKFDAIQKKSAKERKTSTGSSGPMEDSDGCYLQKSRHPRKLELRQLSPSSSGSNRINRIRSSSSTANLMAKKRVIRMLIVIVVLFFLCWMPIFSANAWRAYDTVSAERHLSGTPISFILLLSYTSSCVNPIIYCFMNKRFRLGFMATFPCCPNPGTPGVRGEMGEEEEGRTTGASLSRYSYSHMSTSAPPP
Description: The compounds of the invention were also assayed for CCK-antagonist activity as follows:
Isolated, strip preparations were prepared from gall-bladders removed from male Dunkin-Hartley guinea-pigs (250-500 g body weight) according to the method of La Morte, W. W., et al., J.P.E.T., 217, (3), 638-644 (1981).
The complete gall-bladder is removed and opened along the longitudinal axis. Strips measuring 3 mm in the longitudinal axis and 1 mm in the transverse axis are cut and then tied with cotton to stainless steel wires. The preparation is connected to a GRASS FTO3 isometric transducer under an initial loading tension of 1 g and is immersed in 20 mls of Krebs solution maintained at 37° C. and gassed with 95% O2 /5% CO2. The Krebs solution is as detailed above in connection with the fundus assay, except that the Ca^2+ concentration is decreased to 0.5 mM. After 30 mins the preparation is washed. Drug addition begins after an initial 90 min stabilisation period. Responses are measured as changes in tension from that immediately prior to any drug addition. Single cumulative agonist concentration-effect curves, using CCK-8 as agonist, are obtained on each preparation in the absence and presence of test compound which has been incubated for 60 minutes. The antagonist activity of the test compound is estimated and expressed as the negative logarithm (base 10) of the equilibrium dissociation constants (pK8) using the modifications of standard competitive analysis described by Black et al., Br. J. Pharmacol.,86,571-579, (1985) and Shankley et al., Br. J. Pharmacol.,94,264-274 (1988).

gastrin receptor [3] = molecular target: T3, gastrin receptor (Mus musculus, UniProt P56481); experiment: mouse stomach assay for gastrin activity (isolated stomach, acid secretion); settings: for Kb: read-out: pKB mouse stomach (converted); for Acid seretion at 10^-5 M test compound, relative to pentagastrin (%): mouse stomach, NS = not significant
T3 construct: assayed for gastrin activity using the mouse stomach assay; from tissue; host or cells: isolated mouse stomach
T3 sequence (P56481 1-453): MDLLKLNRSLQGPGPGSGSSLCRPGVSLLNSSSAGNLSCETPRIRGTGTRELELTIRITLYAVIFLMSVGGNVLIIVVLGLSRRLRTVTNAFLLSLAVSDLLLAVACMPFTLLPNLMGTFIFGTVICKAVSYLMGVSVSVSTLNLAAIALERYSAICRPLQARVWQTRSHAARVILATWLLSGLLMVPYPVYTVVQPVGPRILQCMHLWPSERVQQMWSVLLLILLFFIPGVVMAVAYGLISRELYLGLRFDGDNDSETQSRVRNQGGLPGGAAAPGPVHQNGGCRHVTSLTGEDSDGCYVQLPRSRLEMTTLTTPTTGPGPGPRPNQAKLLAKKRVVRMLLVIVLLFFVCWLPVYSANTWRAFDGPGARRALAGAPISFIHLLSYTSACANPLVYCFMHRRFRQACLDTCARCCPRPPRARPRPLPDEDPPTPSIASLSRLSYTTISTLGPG
Description: The compounds were assayed for gastrin activity using the mouse stomach assay as described by Black, J. W. and Shankley, N. P., Br. J. Pharmacol., 86, 571-579, (1985), and also in the guinea-pig fundus assay, as follows: […]

[4] = isolated mouse stomach assay, gastrin antagonism, standard errors less than 5%

Q: With “N-t-Butyloxycarbonyl-L-tryptophyl-L-3-(2-naphthyl)alanyl-L-aspartyl-L-3-cyclohexylalaninamide [Example 36]” as the compound, how does the pKB (gastrin receptor [1]) read?
A: Its pKB is 5.4.

Q: What about the pKB [2] of the same compound?
A: Its pKB is 6.3.

Q: Which results are given for “N-t-Butyloxycarbonyl-L-tryptophyl-L-3-(2-naphthyl)alanyl-L-aspartyl-trans- 2-phenylcyclopropylamide [Example 29]”?
A: pKB (gastrin receptor [1]): 6.0; pKB [2]: 5.9

Q: What does the source list for `CC(C)(C)OC(=O)N[C@@H](Cc1c[nH]c2ccccc12)C(=O)N[C@@H](Cc1ccc2ccccc2c1)C(=O)N[C@@H](CC(=O)O)C(=O)N[C@@H]1CCC[C@H]1c1ccccc1` (single isomer, unassigned; diastereomer 2) [Example 32, N-t-Butyloxycarbonyl-L-tryptophyl-L-3-(2-naphthyl)alanyl-L-aspartyl-trans-2-phenylcyclopentylamide (diastereomer 2)]?
A: pKB (gastrin receptor [1]): 6.1; pKB [2]: 6.6

Q: With `CC(C)(C)OC(=O)N[C@@H](Cc1c[nH]c2ccccc12)C(=O)N[C@@H](Cc1ccc2ccccc2c1)C(=O)N[C@@H](CC(=O)O)C(=O)N[C@H](CO)Cc1ccccc1` [Example 9, N-t-Butyloxycarbonyl-L-tryptophyl-L-3-(2-naphthyl)alanyl-L-aspartyl-L-phenylalaninol] (Boc-W[2Nal]D[Phe(ol)]) as the compound, how does the Kb (gastrin receptor [1]) read?
A: Its Kb is 2510 nM.

Q: What about the Kb [2] of the same compound?
A: The Kb was 1260 nM.

Q: How did the pKB (gastrin receptor [1]) turn out when `CC(C)(C)OC(=O)N[C@@H](Cc1c[nH]c2ccccc12)C(=O)N[C@@](C)(Cc1ccc2ccccc2c1)C(=O)N[C@@H](CC(=O)O)C(=O)N[C@@H](Cc1ccccc1)C(N)=O` [Example 57, N-t-Butyloxycarbonyl-L-tryptophyl-L-2-methyl-3-(2-naphthyl)alanyl-L-aspartyl-L-phenylalaninamide] was run?
A: The pKB was 5.6.

Q: What about the pKB [2] of the same compound?
A: The pKB was 6.0.

Q: What does the source list for `COc1cc2c(cc1OC)CN(C(=O)C(CC(=O)O)NC(=O)C(Cc1ccc3ccccc3c1)NC(=O)C(Cc1c[nH]c3ccccc13)NC(=O)OC(C)(C)C)CC2` [Example 48, N-t-Butyloxycarbonyl-L-tryptophyl-L-3-(2-naphthyl)alanyl-L-aspartyl-2-N-(6,7-dimethoxy-1,2,3,4-tetrahydro)isoquinolinamide]?
A: pKB (gastrin receptor [1]): 5.7; pKB [2]: 6.6

Q: Which pKB (gastrin receptor [1]) does the source give for “N-t-Butyloxycarbonyl-L-tryptophyl-L-3-(2-naphthyl)alanyl-L-aspartyl]-3-azaspiro[5.4]decylamide [Example 62]” here?
A: The pKB was 5.6.

Q: Which results are given for `COc1ccc(CCNC(=O)[C@H](CCC(=O)O)NC(=O)[C@H](Cc2ccc3ccccc3c2)NC(=O)[C@H](Cc2c[nH]c3ccccc23)NC(=O)OC(C)(C)C)cc1` [Example 61, N-t-Butyloxycarbonyl-L-tryptophyl-L-3-(2-naphthyl)alanyl-L-glutamyl-4-methoxyphenethylamide]?
A: pKB (gastrin receptor [1]): 5.7; pKB [2]: 6.5

Q: For `NC(=O)[C@H](Cc1ccccc1)NC(=O)[C@H](CC(=O)O)NC(=O)[C@H](Cc1ccc2ccccc2c1)NC(=O)[C@H](Cc1c[nH]c2ccccc12)NC=O` [Example 15, N-Formyl-L-tryptophyl-L-3-(2-naphthyl)alanyl-L-aspartyl-L-phenylalaninamide] (For-W[2Nal]DF-NH2), which Kb (gastrin receptor [1]) is on record?
A: Its Kb is 5010 nM.

Q: What about the Kb [2] of the same compound?
A: The Kb was 631 nM.

Q: Which results are given for `CCCCOC(=O)N[C@@H](Cc1c[nH]c2ccccc12)C(=O)N[C@@H](Cc1ccc2ccccc2c1)C(=O)N[C@@H](CC(=O)O)C(=O)NCCc1ccccc1C(F)(F)F` [Example 27, N-Butyloxycarbonyl-L-tryptophyl-L-3-(2-naphthyl)alanyl-L-aspartyl-2-trifluoromethylphenethylamide]?
A: pKB (gastrin receptor [1]): 5.8; pKB [2]: 6.5

Q: `CC(C)(C)OC(=O)N[C@@H](Cc1c[nH]c2ccccc12)C(=O)N[C@@H](Cc1cccc2ccccc12)C(=O)N[C@@H](CC(=O)O)C(=O)N[C@@H](Cc1ccccc1)C(N)=O` [Example 4, N-t-Butyloxycarbonyl-L-tryptophyl-L-3-(1-naphthyl)alanyl-L-aspartyl-L-phenylalaninamide] (Boc-W[1Nal]DF-NH2) was tested. Which Kb (gastrin receptor [1]) did it give?
A: The Kb was 1580 nM.

Q: What does the source list for `CC(C)(C)OC(=O)N[C@@H](Cc1c[nH]c2ccccc12)C(=O)N[C@H](Cc1cccc2ccccc12)C(=O)N[C@@H](CC(=O)O)C(=O)N[C@@H](Cc1ccccc1)C(N)=O` [Example 24, N-t-Butyloxycarbonyl-L-tryptophyl-D-3-(1-naphthyl)alanyl-L-aspartyl-L-phenylalaninamide] (Boc-W[d1Nal]DF-NH2)?
A: Kb (gastrin receptor [3]; [4]): 251 nM; Acid seretion at 10^-5 M test compound, relative to pentagastrin (%) (gastrin receptor [3]): 50%; Kb [2]: 316 nM

Q: What does the source list for `NC(=O)[C@H](Cc1ccccc1)NC(=O)[C@H](CC(=O)O)NC(=O)[C@H](Cc1ccc2ccccc2c1)NC(=O)[C@H](Cc1c[nH]c2ccccc12)NC(=O)OCC1c2ccccc2-c2ccccc21` [Example 16, N-9-Fluorenylmethoxycarbonyl-L-tryptophyl-L-3-(2-naphthyl)alanyl-L-aspartyl-L-phenylalaninamide] (Fmoc-W[2Nal]DF-NH2)?
A: Kb (gastrin receptor [3]; [4]): 2000 nM; Acid seretion at 10^-5 M test compound, relative to pentagastrin (%) (gastrin receptor [3]): 67%; Kb [2]: 2510 nM

Q: For `CC(C)(C)OC(=O)N[C@@H](Cc1c[nH]c2ccccc12)C(=O)N[C@H](Cc1ccc2ccccc2c1)C(=O)N[C@@H](CC(=O)O)C(=O)N[C@@H](Cc1ccccc1)C(N)=O` [Example 3, N-t-Butyloxycarbonyl-L-tryptophyl-D-3-(2-naphthyl)alanyl-L-aspartyl-L-phenylalaninamide] (Boc-W[d2Nal]DF-NH2), which Kb (gastrin receptor [1]) is on record?
A: Its Kb is 2510 nM.

Q: How did the pKB mouse stomach (gastrin receptor [3]; [4]) turn out when “N-t-benzyloxycarbonyl-β-alanyl-L-tryptophyl-L-3-(2-naphthyl)alanyl-L- aspartyl-L-phenylalaninamide [Example 23]” was run?
A: The pKB mouse stomach was 5.5.

Q: What about the “Acid seretion at 10^-5 M test compound, relative to pentagastrin (%)” value (gastrin receptor [3]) of the same compound?
A: Its value is 40%.

Q: What about the pKB [2] of the same compound?
A: Its pKB is 5.9.
